Results: ChEMBL document CHEMBL5344425, “Discovery of 5-(Pyrimidin-2-ylamino)-1H-indole-2-carboxamide Derivatives as Nur77 Modulators with Selective and Potent Activity Against Triple-Negative Breast Cancer” (J Med Chem, 2023)
Active and inactive are the calls of the source. The rule behind the calls is not given here.

Key:
[1] = Toxicity in BALB/c mouse xenografted with human MDA-MB-231 cells assessed as morphological changes in kidney at 10 mg/kg, ip qd for 16 days by Hematoxylin-Eosin staining based analysis; format: organism-based; conditions: in vivo, 384 h, time 16 day
MDA-MB-231 [2] = assay: Induction of apoptosis in human MDA-MB-231 cells transfected with Nur77 siRNA assessed as early apoptotic cells at 1 uM measured after 6 hrs by AnnexinV-FITC/PI staining based flow cytometry (reference value: 1.88%); format: functional
[3] = molecular target: T1, Peroxisome proliferator-activated receptor gamma (Homo sapiens) (UniProt P37231); assay: Antagonist activity at PPARgamma ligand binding domain (unknown origin) transfected in HEK293T cells cotransfected with pG5-Luc assessed as inhibition of receptor transcriptional activity at 2 uM measured after 12 hrs by luciferase reporter gene assay; format: cell-based
T1 sequence (whole entry): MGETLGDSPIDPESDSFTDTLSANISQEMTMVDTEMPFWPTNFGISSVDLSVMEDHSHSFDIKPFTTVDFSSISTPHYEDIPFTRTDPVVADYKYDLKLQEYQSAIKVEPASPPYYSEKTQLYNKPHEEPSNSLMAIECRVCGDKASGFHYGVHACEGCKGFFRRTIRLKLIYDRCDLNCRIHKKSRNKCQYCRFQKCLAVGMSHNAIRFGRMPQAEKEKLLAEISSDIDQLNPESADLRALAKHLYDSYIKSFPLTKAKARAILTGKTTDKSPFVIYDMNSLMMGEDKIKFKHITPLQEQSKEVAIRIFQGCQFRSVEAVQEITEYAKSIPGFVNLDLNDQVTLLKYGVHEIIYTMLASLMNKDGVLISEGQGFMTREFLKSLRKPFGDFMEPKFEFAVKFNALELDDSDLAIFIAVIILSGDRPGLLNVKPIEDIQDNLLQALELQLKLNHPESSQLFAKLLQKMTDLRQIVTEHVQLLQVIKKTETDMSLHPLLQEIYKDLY

MDA-MB-231 [4] = assay: Antitumor activity against human MDA-MB-231 cells xenografted in BALB/c mouse assessed as decrease in Ki67 expression in tumor at 10 mg/kg, ip qd for 16 days by immunohistochemical staining based analysis; format: functional, organism-based; conditions: time 16.0 day
[5] = Cytotoxicity against human MCF-10A cells assessed as inhibition of cell growth measured after 24 hrs by MTT assay; format: toxicity, cell-based
[6] = Selectivity index, ratio of IC50 for cytotoxicity against human MCF-10A cells to IC50 for antiproliferative activity against human MDA-MB-231 cells; format: toxicity, cell-based; conditions: MCF-10A cells versus MDA-MB-231 cells, read-out: Ratio IC50
[7] = molecular target: T2, Nuclear receptor subfamily 4immunitygroup A member 1 (Homo sapiens, UniProt P22736); assay: Binding affinity to His-tagged Nur77 ligand binding domain (unknown origin) at 10 uM by surface plasmon resonance assay; conditions: filed as modulator
T2 sequence (P22736 whole entry, the tested form may be a part): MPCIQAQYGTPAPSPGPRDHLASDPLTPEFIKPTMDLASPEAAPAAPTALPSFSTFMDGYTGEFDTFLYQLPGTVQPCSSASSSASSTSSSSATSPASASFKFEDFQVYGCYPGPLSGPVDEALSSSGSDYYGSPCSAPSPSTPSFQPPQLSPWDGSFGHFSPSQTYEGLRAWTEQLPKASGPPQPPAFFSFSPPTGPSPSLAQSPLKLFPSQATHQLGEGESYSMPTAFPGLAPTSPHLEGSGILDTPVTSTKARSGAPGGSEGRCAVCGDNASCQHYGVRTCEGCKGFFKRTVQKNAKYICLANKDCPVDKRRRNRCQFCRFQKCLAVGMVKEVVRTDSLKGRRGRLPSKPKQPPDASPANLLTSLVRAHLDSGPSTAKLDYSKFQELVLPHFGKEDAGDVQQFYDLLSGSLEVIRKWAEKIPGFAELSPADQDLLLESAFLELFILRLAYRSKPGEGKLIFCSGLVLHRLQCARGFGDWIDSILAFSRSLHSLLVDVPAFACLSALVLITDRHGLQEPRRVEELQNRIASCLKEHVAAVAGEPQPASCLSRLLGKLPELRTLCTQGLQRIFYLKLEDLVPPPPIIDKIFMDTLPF

MDA-MB-231 [8] = assay: Induction of apoptosis in human MDA-MB-231 cells assessed as PARP cleavage at 2.5 uM pretreated with mTOR inhibitor, rapamycin for 4 hrs followed by compound addition and measured after 6 hrs by western blot analysis; format: functional, cell-based
[9] = Selectivity index, ratio of IC50 for cytotoxicity against human MCF-10A cells to IC50 for antiproliferative activity against human T47D cells; format: toxicity, cell-based; conditions: MCF-10A cells versus T47D cells, read-out: Ratio IC50
[10] = Toxicity in Zebra fish AB embryo assessed as mortality rate at 1.25 uM measured after 24 to 72 hrs; parameters: species or system Danio rerio; conditions: zebrafish, 1.25 µM, time 24-72 hrs
MDA-MB-231 [11] = assay: Induction of apoptosis in human MDA-MB-231 cells assessed as proportion of early apoptotic cells at 5 uM measured after 5 hrs by AnnexinV-FITC/PI staining based flow cytometry (reference value: 3.35%); format: functional
[12] = molecular target: T2, Nuclear receptor subfamily 4immunitygroup A member 1; assay: Antagonist activity at Nur77 ligand binding domain (unknown origin) transfected in HEK293T cells cotransfected with pG5-Luc assessed as inhibition of receptor transcriptional activity at 1 uM measured after 12 hrs by luciferase reporter gene assay; format: cell-based; conditions: filed as antagonist
MDA-MB-231 [13] = assay: Induction of apoptosis in human MDA-MB-231 cells assessed as PARP cleavage at 2.5 uM pretreated with proteasome and calpain inhibitor, MG132 for 4 hrs followed by compound addition and measured after 6 hrs by western blot analysis; format: functional, cell-based
MDA-MB-231 [14] = assay: Induction of apoptosis in human MDA-MB-231 cells assessed as proportion of early apoptotic cells at 0.32 uM measured after 5 hrs by AnnexinV-FITC/PI staining based flow cytometry (reference value: 3.35%); format: functional
MDA-MB-231 [15] = assay: Induction of apoptosis in human MDA-MB-231 cells transfected with Myc-Nur77 assessed as PARP cleavage at 2 to 5 uM measured after 6 hrs by western blot analysis; format: functional, cell-based; conditions: dose 2-5 µM
[16] = molecular target: T2, Nuclear receptor subfamily 4immunitygroup A member 1; assay: Induction of degradation of Myc-tagged Nur77 (unknown origin) transfected in human MDA-MB-231 cells at 2 to 5 uM measured after 6 hrs by western blot analysis; format: cell-based; conditions: dose 2-5 µM
HCC1806 = assay: Antiproliferative activity against human HCC1806 cells assessed as inhibition of cell growth measured after 24 hrs by MTT assay; format: functional, cell-based; conditions: HCC1806, 24 h
MDA-MB-231 [17] = assay: Induction of apoptosis in human MDA-MB-231 cells transfected with ctr siRNA assessed as early apoptotic cells at 1 uM measured after 6 hrs by AnnexinV-FITC/PI staining based flow cytometry (reference value: 1.88%); format: functional
MDA-MB-231 [18] = assay: Antitumor activity against human MDA-MB-231 cells xenografted in BALB/c mouse assessed as tumor weight at 10 mg/kg, ip qd for 16 days (reference value: 1.17 gms); format: functional; conditions: time 16 day
MDA-MB-231 [19] = assay: Induction of apoptosis in human MDA-MB-231 cells assessed as PARP cleavage at 2.5 uM pretreated with protein synthesis inhibitor, cycloheximide for 4 hrs followed by compound addition and measured after 6 hrs by western blot analysis; format: functional, cell-based
MDA-MB-231 [20] = assay: Induction of apoptosis in human MDA-MB-231 cells assessed as proportion of late apoptotic cells at 1.25 uM measured after 5 hrs by AnnexinV-FITC/PI staining based flow cytometry (reference value: 2.55%); format: functional

SMILES: CCN(CC)CCCNC(=O)c1cc2cc(Nc3nccc(-c4sc(NC)nc4C)n3)ccc2[nH]1
- Activity [1]: Non-Toxic
- Activity (MDA-MB-231 [2]): 2.25%
- inhibition [3]: inactive
- Activity (MDA-MB-231 [4]): Active
- IC50 at 24 h [5]: 48 µM
- selectivity ratio [6]: 120
- Activity [7]: Active
- Activity (MDA-MB-231 [8]): Active
- selectivity ratio [9]: 45.7
- Activity [10]: Non-Toxic
- Activity (MDA-MB-231 [11]): 52.78%
- inhibition [12]: Active
- Activity (MDA-MB-231 [13]): inactive
- Activity (MDA-MB-231 [14]): 9.81%
- Activity (MDA-MB-231 [15]): Active
- Activity [16]: Active
- IC50 (HCC1806): 380 nM
- Activity (MDA-MB-231 [17]): 11.24%
- Activity (MDA-MB-231 [18]): 0.06 g
- Activity (MDA-MB-231 [19]): Active
- Activity (MDA-MB-231 [20]): 4.06%
